{"source": "patent US20060079566A1", "about": "“PDK-1/Akt signaling inhibitors” (priority 2003, published 2006)", "key": {"[1]": {"test_system": "PC-3 cells", "assay": "Cell viability analysis (MTT) in PC-3 cells", "assay_type": "cell-based, human", "settings": "Homo sapiens; inducing apoptotic death in PC-3 cells / PC-3 cell viability; read-out: IC50 PC-3", "procedure,_shortened": "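Viability of PC-3 (p53−/−) prostate cancer cells measured by MTT in six replicates after 24 h growth in 10% FBS medium. Compounds (DMSO ≦0.1% final) applied in 1% serum RPMI 1640 for varying times; 0.5 mg/ml MTT for 2 h at 37° C., formazan dissolved in DMSO, absorbance read at 570 nm.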"}, "[2]": {"test_system": "HOP-92", "assay": "NCI DTP screen (SRB), Non-Small Cell Lung Cancer", "assay_type": "cell-based", "settings": "Homo sapiens, HOP-92, read-out: LC50", "method": "(§6) After 24 h, two plates of each cell line are fixed in situ with TCA, to represent a measurement of the cell population for each cell line at the time of drug addition (Tz). Experimental drugs are solubilized in dimethyl sulfoxide at 400-fold the desired final maximum test concentration and stored frozen prior to use. […]\n(§7) Following drug addition, the plates are incubated for an additional 48 h at 37° C., 5% CO2, 95% air, and 100% relative humidity. […] Bound stain is subsequently solubilized with 10 mM trizma base, and the absorbance is read on an automated plate reader at a wavelength of 515 nm. […] Using the seven absorbance measurements [time zero, (Tz), control growth, (C), and test growth in the presence of drug at the five concentration levels (Ti)], the percentage growth is calculated at each of the drug concentrations levels. Percentage growth inhibition is calculated as: [(Ti−Tz)/(C−Tz)]×100 for concentrations for which Ti>/=Tz [(Ti−Tz)/Tz]×100 for concentrations for which Ti<Tz […]"}, "[3]": {"test_system": "HT29", "assay": "NCI DTP screen (SRB), Colon Cancer", "assay_type": "cell-based", "settings": "Homo sapiens, HT-29", "method": "as §6, §7"}, "[4]": {"test_system": "SF-268", "assay": "NCI DTP screen (SRB), CNS Cancer", "assay_type": "cell-based", "experimental": "(§1) Screening of compounds 70 and 71 against several cancer cell lines The human tumor cell lines of the cancer screening panel are grown in RPMI 1640 medium containing 5% fetal bovine serum and 2 mM L-glutamine. For a typical screening experiment, cells are inoculated into 96 well microtiter plates in 100 μL at plating densities ranging from 5,000 to 40,000 cells/well depending on the doubling time of individual cell lines. After cell inoculation, the microtiter plates are incubated at 37° C., 5% CO2, 95% air and 100% relative humidity for 24 h prior to addition of experimental drugs.\n(§2) After 24 h, two plates of each cell line are fixed in situ with TCA, to represent a measurement of the cell population for each cell line at the time of drug addition (Tz). Experimental drugs are solubilized in dimethyl sulfoxide at 400-fold the desired final maximum test concentration and stored frozen prior to use. At the time of drug addition, an aliquot of frozen concentrate is thawed and diluted to twice the desired final maximum test concentration with complete medium containing 50 μg/ml gentamicin. Additional four, 10-fold or ½ log serial dilutions are made to provide a total of five drug concentrations plus control. Aliquots of 100 μl of these different drug dilutions are added to the appropriate microtiter wells already containing 100 μl of medium, resulting in the required final drug concentrations.\n(§3) Following drug addition, the plates are incubated for an additional 48 h at 37° C., 5% CO2, 95% air, and 100% relative humidity. For adherent cells, the assay is terminated by the addition of cold TCA. Cells are fixed in situ by the gentle addition of 50 μl of cold 50% (w/v) TCA (final concentration, 10% TCA) and incubated for 60 minutes at 4° C. The supernatant is discarded, and the plates are washed five times with tap water and air dried. Sulforhodamine B (SRB) solution (100 μl) at 0.4% (w/v) in 1% acetic acid is added to each well, and plates are incubated for 10 minutes at room temperature. After staining, unbound dye is removed by washing five times with 1% acetic acid and the plates are air dried. Bound stain is subsequently solubilized with 10 mM trizma base, and the absorbance is read on an automated plate reader at a wavelength of 515 nm. For suspension cells, the methodology is the same except that the assay is terminated by fixing settled cells at the bottom of the wells by gently adding 50 μl of 80% TCA (final concentration, 16% TCA). Using the seven absorbance measurements [time zero, (Tz), control growth, (C), and test growth in the presence of drug at the five concentration levels (Ti)], the percentage growth is calculated at each of the drug concentrations levels. Percentage growth inhibition is calculated as: [(Ti−Tz)/(C−Tz)]×100 for concentrations for which Ti>/=Tz [(Ti−Tz)/Tz]×100 for concentrations for which Ti<Tz\n(§4) Three dose response parameters are calculated for each experimental agent. […] The drug concentration resulting in total growth inhibition (TGI) is calculated from Ti=Tz. […] Values are calculated for each of these three parameters if the level of activity is reached; however, if the effect is not reached or is exceeded, the value for that parameter is expressed as greater or less than the maximum or minimum concentration tested."}, "[5]": {"test_system": "SF-295", "assay": "NCI DTP screen (SRB), CNS Cancer", "assay_type": "cell-based", "settings": "Homo sapiens", "experimental": "as §1, §2, §3, §4"}, "[6]": {"test_system": "SNB-19", "assay": "NCI DTP screen (SRB), CNS Cancer", "assay_type": "cell-based", "settings": "Homo sapiens", "experimental": "as §1, §2, §3, §4"}, "[7]": {"test_system": "LOX IMVI", "assay": "NCI DTP screen (SRB), Melanoma", "assay_type": "cell-based", "settings": "Homo sapiens, LOX IMVI", "experimental": "as §1, §2, §3, §4"}, "[8]": {"test_system": "M14", "assay": "NCI DTP screen (SRB), Melanoma", "assay_type": "cell-based", "settings": "Homo sapiens", "experimental": "as §1, §2, §3, §4"}, "[9]": {"test_system": "SK-MEL-2", "assay": "NCI DTP screen (SRB), Melanoma", "assay_type": "cell-based", "experimental": "as §1, §2, §3, §4"}, "[10]": {"test_system": "SK-MEL-5", "assay": "NCI DTP screen (SRB), Melanoma", "assay_type": "cell-based", "settings": "Homo sapiens", "experimental": "as §1, §2, §3, §4"}, "[11]": {"test_system": "RXP 393", "assay": "NCI DTP screen (SRB), Renal Cancer", "assay_type": "cell-based, human", "experimental": "as §1, §2, §3, §4"}, "[12]": {"test_system": "UO-31", "assay": "NCI DTP screen (SRB), Renal Cancer", "assay_type": "cell-based, human", "settings": "Homo sapiens, UO-31", "experimental": "as §1, §2, §3, §4"}, "[13]": {"test_system": "DU-145", "assay": "NCI DTP screen (SRB), Prostate Cancer", "assay_type": "cell-based", "settings": "Homo sapiens", "experimental": "as §1, §2\n(§5) Following drug addition, the plates are incubated for an additional 48 h at 37° C., 5% CO2, 95% air, and 100% relative humidity. For adherent cells, the assay is terminated by the addition of cold TCA. Cells are fixed in situ by the gentle addition of 50 μl of cold 50% (w/v) TCA (final concentration, 10% TCA) and incubated for 60 minutes at 4° C. […] Bound stain is subsequently solubilized with 10 mM trizma base, and the absorbance is read on an automated plate reader at a wavelength of 515 nm. […] Using the seven absorbance measurements [time zero, (Tz), control growth, (C), and test growth in the presence of drug at the five concentration levels (Ti)], the percentage growth is calculated at each of the drug concentrations levels. Percentage growth inhibition is calculated as: [(Ti−Tz)/(C−Tz)]×100 for concentrations for which Ti>/=Tz [(Ti−Tz)/Tz]×100 for concentrations for which Ti<Tz\nas §4"}, "[14]": {"test_system": "PC-3", "assay": "NCI DTP screen (SRB), Prostate Cancer", "assay_type": "cell-based", "settings": "Homo sapiens", "experimental": "as §1, §2, §5, §4"}, "[15]": {"test_system": "MCP7", "assay": "NCI DTP screen (SRB), Breast Cancer", "assay_type": "cell-based, human", "settings": "MCP7", "experimental": "as §1, §2, §3, §4"}}}
{"smiles": "NCC(=O)Nc1ccc(-n2nc(C(F)(F)F)cc2-c2ccc3c(ccc4ccccc43)c2)cc1", "note": "[Compound 70, 2-Amino-N-{4-[5-(2-phenanthrenyl)-3-(trifluoromethyl)-1H-pyrazol-1-yl]-phenyl}-acetamide]", "values": [{"measurement": "IC50", "setting": "[1]", "value": 5, "unit": "µM"}, {"measurement": "CC50", "setting": "[2]", "value": 5.87, "unit": "µM"}, {"measurement": "GI50", "setting": "[3]", "value": 0.858, "unit": "µM"}, {"measurement": "GI50", "setting": "[4]; Homo sapiens, SF-268", "value": 1.11, "unit": "µM"}, {"measurement": "CC50", "setting": "[4]; Homo sapiens, SF-268, read-out: LC50", "value": "> 100", "unit": "µM"}, {"measurement": "Percent Growth", "setting": "[4]; SF-268, Log10 Concentration −4.0", "value": "−26", "unit": "%"}, {"measurement": "GI50", "setting": "[5]; SF-295", "value": 1.28, "unit": "µM"}, {"measurement": "CC50", "setting": "[5]; SF-295, read-out: LC50", "value": "> 100", "unit": "µM"}, {"measurement": "GI50", "setting": "[6]", "value": 1.18, "unit": "µM"}, {"measurement": "GI50", "setting": "[7]", "value": 0.836, "unit": "µM"}, {"measurement": "GI50", "setting": "[8]; M14", "value": 2.1, "unit": "µM"}, {"measurement": "CC50", "setting": "[8]; M14, read-out: LC50", "value": "> 100", "unit": "µM"}, {"measurement": "GI50", "setting": "[9]; Homo sapiens, SK-MEL-2", "value": 2.33, "unit": "µM"}, {"measurement": "CC50", "setting": "[9]; Homo sapiens, SK-MEL-2, read-out: LC50", "value": "> 100", "unit": "µM"}, {"measurement": "Percent Growth", "setting": "[9]; SK-MEL-2, Log10 Concentration −5.0", "value": "−67", "unit": "%"}, {"measurement": "GI50", "setting": "[10]", "value": 1.36, "unit": "µM"}, {"measurement": "GI50", "setting": "[11]; Homo sapiens", "value": 1.14, "unit": "µM"}, {"measurement": "Percent Growth", "setting": "[11]; Log10 Concentration −4.0", "value": 10, "unit": "%"}, {"measurement": "Mean Optical Densities", "setting": "[11]; Log10 Concentration −7.0", "value": 0.700}, {"measurement": "Mean Optical Densities", "setting": "[11]; Log10 Concentration −8.0", "value": 0.766}, {"measurement": "GI50", "setting": "[12]", "value": 1.37, "unit": "µM"}, {"measurement": "GI50", "setting": "[13]; DU-145", "value": 1.73, "unit": "µM"}, {"measurement": "CC50", "setting": "[13]; DU-145, read-out: LC50", "value": 6.95, "unit": "µM"}, {"measurement": "GI50", "setting": "[14]; PC-3", "value": 0.705, "unit": "µM"}, {"measurement": "CC50", "setting": "[14]; PC-3, read-out: LC50", "value": 6.02, "unit": "µM"}, {"measurement": "GI50", "setting": "[15]; Homo sapiens", "value": 0.718, "unit": "µM"}, {"measurement": "Percent Growth", "setting": "[15]; Log10 Concentration −5.0", "value": "−57", "unit": "%"}, {"measurement": "Percent Growth", "setting": "[15]; Log10 Concentration −6.0", "value": 43, "unit": "%"}]}
